Key:
[1] = tested on: EB-DNA adduct (CT DNA); experiment: EB-displacement from EB-DNA (fluorescence); format: binding, calf; settings: for ΔΙ/Ι0 (%) EB-DNA fluorescence quenching: [EB] = 20 μM, [DNA] = 26 μM; for EB-DNA relative fluorescence emission intensity, % of the initial: λemission = 592 nm, final value; for kq (EB-DNA quenching constant): τo = 23 ns
Description: page 8: […] spectroscopy, viscosity measurements and fluorescence emission spectroscopy studies. […] UV-vis spectroscopy was used for the evaluation of the interaction of the compounds with CT DNA, and specifically the possible binding modes of the compounds to CT DNA. Control experiments with DMSO were performed and no changes in the spectra of CT DNA were observed. In order to determine the binding mode, the UV-vis spectra of the compounds were […] concentrations of CT DNA for diverse r (r = [complex]/[DNA]) values. Effective use of the changes […] compounds were calculated by the Wolfe-[…] equation (eq. […] εf) versus [DNA]: (eq. S1) where [DNA] = the concentration of DNA in base pairs, ε f= the extinction coefficient for the free compound at the corresponding λmax, εA = Aobsd/[compound] and εb= the extinction coefficient for the compound in the fully bound form. K b is given by the ratio of slope to the y intercept in plots [DNA]/(εA-εf) versus [DNA]. S3.2 CT DNA-binding studies by viscosity measurements […] presence of increasing amounts of the compounds. The experiments were executed at room temperature and the measurements are devised in a plot (η/η 0)1/3 versus r, where η = the viscosity of DNA in the presence of the compound, and η0 = the viscosity of neat DNA in buffer solution. […] In order to determine and confirm the DNA-binding mode of the compounds, a competitive study with EB as an intercalating marker is performed by fluorescence emission spectroscopy. Therefore, the EB-displacing ability of the compounds from its EB-DNA conjugate was examined. […] solution (150 mM NaCl and 15 mM trisodium citrate at pH 7.0). The potential intercalation of the compounds between the DNA-bases was studied by the addition of a certain amount of the 8 (1 picture or pasted object on this page, not shown here) page 9: compound solution into the EB-DNA adduct solution. The influence of the compounds on the EB- DNA solution was monitored through the changes of the fluorescence emission spectra at excitation wavelength (λex) at 540 nm [S6]. […] Bearing that in mind, the observed quenching of the EB-DNA solution is evidently associated to the displacement of EB from its EB-DNA adduct. The quenching efficiency (KSV) for each compound was assessed according to the Stern - Volmer equation (eq. S2) [S6]: (eq. S2) where I0 and I = the fluorescence emission intensities of EB-DNA in the absence and presence of the quencher, respectively, [Q] = the concentration of the quencher (i.e. compounds). K SV is obtained from the Stern-Volmer plots by the slope of the diagram I0/I versus [Q]. Taking τ0 = 23 ns […] M-1s-1) of the compounds can be determined according to e quation S3: KSV = kqτo (eq. S3) 9 (1 picture or pasted object on this page, not shown here)

[2] = molecular target: T1, HSA (Homo sapiens, UniProt P02768); experiment: HSA fluorescence quenching; format: binding; settings: for ΔΙ/Ιο (%) HSA fluorescence quenching: HSA 3 μM; for K HSA-binding constant: Scatchard; for relative HSA-fluorescence emission intensity, % of the initial: final value
T1 construct: purchased Sigma-Aldrich Co
Description: S4 Interaction with serum albumins
S4.1 Study of the affinity for serum albumins
The albumin–binding study for the compounds was carried out by fluorescence emission quenching experiments using BSA (3 μM) or HSA (3 μM) in buffer solution (15 mM trisodium citrate and 150 mM NaCl at pH 7.0). The tested compounds were used as quenchers with gradually increasing concentrations to monitor the quenching of the emission intensity of tryptophan residues of BSA at 345 nm or HSA at 340 nm [S6]. The fluorescence emission spectra were recorded between 300–500 nm with excitation wavelength of 295 nm. All the experiments were conducted at room temperature. The fluorescence spectra of the compounds were recorded under the same experimental conditions and presented a low–intensity emission band in the region 395–415 nm.
Consequently, the SA fluorescence emission spectra were modified properly, by subtracting the spectra of the compounds, and quantitative studies followed.
The extent of the inner–filter effect can be roughly estimated with the following formula: […]
where Icorr= corrected intensity, Imeas= the measured intensity, c = the concentration of the quencher, d = the cuvette length (1 cm), ε(λexc) and ε(λem) = the ε of the quencher at the excitation and the emission wavelength, respectively, as calculated from the UV –vis spectra of the complexes [S 8].
The interaction of the quencher (i.e. compounds) with serum albumins [S6] was studied through the Stern–Volmer and Scatchard equations [S6] and corresponding graphs. The values of the respective Stern–Volmer constant KSV (M–1), the quenching constant k q (M–1s–1), the SA– binding constant K (M–1) and the number of binding sites per albumin (n) were calculated.
According to Stern–Volmer quenching equation [S6] (eq. S2), where I 0 = the initial tryptophan fluorescence intensity of SA, I = the tryptophan fluorescence intensity of SA after the addition of the quencher, kq = the quenching rate constants of SA, K SV = the dynamic quenching constant, τ0 = the average lifetime of SA without the quencher, [Q] = the concentration of the quencher), the Stern –Volmer constant (KSV, M–1) can be obtained by the slope of the diagram I0/I versus [Q]. Taking τ0 = 10–8 s as fluorescence lifetime of tryptophan in SA [S2], the quenching constant (kq, M–1s–1) is calculated from equation S3.
From the Scatchard equation (eq. S5) [S6]: […]
(1 picture or pasted object on this page, not shown here) […]
where n = the number of binding sites per albumin and K = the SA–binding constant. The K constant (M−1) is calculated from the slope in plots (ΔI/I0)/[Q] versus (ΔI/I0) and n is given by the ratio of y intercept to the slope [S9]. […]

[3] = molecular target: T1, HSA; experiment: Competitive HSA-fluorescence studies with warfarin and ibuprofen; format: binding
[4] = Reduction of hydrogen peroxide; settings: compound 0.1 mM
Description: S1 Antioxidant biological assay
The antioxidant activity of the compounds was evaluated via their ability to scavenge in […]
vitro free radicals such as DPPH and ABTS and to reduce H2O2. […]
S1.3 Reduction of hydrogen peroxide
The ability of the compounds to reduce hydrogen peroxide (H2O2) was estimated according […]
to the method described in the literature [S2]. The reaction mixture contained 20 μL of each of the […]
tested compounds (0.1 mM) and 5 μL H 2O2 solution (40 mM) in phosphate buffer (50 mM, pH 7.4).
The absorbance was measured at 230 nm after 10 min. The antioxidant activity (reduction of […]

T1 sequence (P02768 25-609): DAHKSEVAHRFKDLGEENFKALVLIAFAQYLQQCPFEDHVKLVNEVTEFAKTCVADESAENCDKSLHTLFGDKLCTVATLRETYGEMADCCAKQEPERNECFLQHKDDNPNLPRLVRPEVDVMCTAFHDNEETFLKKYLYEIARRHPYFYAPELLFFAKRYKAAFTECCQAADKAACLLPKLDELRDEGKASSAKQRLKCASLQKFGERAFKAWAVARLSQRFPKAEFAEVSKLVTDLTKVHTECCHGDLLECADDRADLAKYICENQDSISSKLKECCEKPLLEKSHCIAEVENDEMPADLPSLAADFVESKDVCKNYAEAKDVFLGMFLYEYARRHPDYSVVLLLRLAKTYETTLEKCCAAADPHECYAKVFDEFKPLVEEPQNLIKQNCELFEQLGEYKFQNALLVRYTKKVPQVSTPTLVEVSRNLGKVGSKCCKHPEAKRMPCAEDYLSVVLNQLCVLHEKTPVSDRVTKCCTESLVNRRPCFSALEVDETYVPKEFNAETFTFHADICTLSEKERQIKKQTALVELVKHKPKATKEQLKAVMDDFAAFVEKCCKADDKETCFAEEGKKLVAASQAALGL

Row | Structure (SMILES) | KSV (Stern–Volmer constant), EB-DNA [1] | ΔΙ/Ι0 (%) EB-DNA fluorescence quenching [1] [%] | EB-DNA relative fluorescence emission intensity, % of the initial [1] [%] | kq (EB-DNA quenching constant) [1] | kq HSA-quenching constant [2] | ΔΙ/Ιο (%) HSA fluorescence quenching [2] [%] | K HSA-binding constant [2] | relative HSA-fluorescence emission intensity, % of the initial [2] [%] | HSA-binding constant K, Marker: Ibuprofen ([3]; ibuprofen) | HSA-binding constant K, No Marker [3] | HSA-binding constant K, Marker: Warfarin ([3]; warfarin) | H2O2% [4] [%] | Kd [2] [µM] | Kd [3] [µM] | Kd ([3]; read-out: HSA-binding constant K, Marker: Ibuprofen, ibuprofen) [µM] | Kd ([3]; read-out: HSA-binding constant K, Marker: Warfarin, warfarin) [µM]
1 | O=Cc1cc(Br)cc(Br)c1[O][Pd][O]c1c(Br)cc(Br)cc1C=O [Complex 2, [Pd(3,5-diBr-salo)2]] | 1.00 (±0.02) × 10^5 M^−1 | 64.8 | 35.2 | 4.35 (±0.10) × 10^12 M^−1s^−1 | 4.22 (±0.13) × 10^13 M^−1 s^−1 | 88.8 | 4.12 (±0.15) × 10^5 M^−1 | 11.2 | 3.23 (±0.13) × 10^5 M^−1 | 4.12 (±0.15) × 10^5 M^−1 | 1.43 (±0.09) × 10^5 M^−1 | 49.21 ± 0.32 |  |  |  | 
2 | O=Cc1cc(F)ccc1O [5-F-saloH, 5-fluoro-salicylaldehyde, reference compound] | 3.79 (±0.11) × 10^4 M^−1 | 51.3 |  | 1.73 (±0.05) × 10^12 M^−1s^−1 | 1.96 (±0.07) × 10^12 M^−1 s^−1 |  |  |  |  |  |  | 71.84 ± 0.95 | 21.5 | 21.5 | 16.1 | 33.1
3 | O=Cc1cc(F)ccc1[O-].O=Cc1cc(F)ccc1[O-].[Pd+2] [Complex 4, [Pd(5-F-salo)2]] | 5.71 (±0.10) × 10^4 M^−1 | 51.4 | 48.6 | 2.48 (±0.04) × 10^12 M^−1s^−1 | 1.82 (±0.06) × 10^13 M^−1 s^−1 | 75.7 | 1.38 (±0.05) × 10^5 M^−1 | 24.3 | 1.10 (±0.08) × 10^5 M^−1 | 1.38 (±0.05) × 10^5 M^−1 | 8.98 (±0.82) × 10^4 M^−1 | 48.31 ± 0.67 |  |  |  | 

Source: paper PMC9323974, “Palladium(II) Complexes of Substituted Salicylaldehydes: Synthesis, Characterization and Investigation of Their Biological Profile” (Pharmaceuticals, 2022)
